This test concerns the target T1, F508delCFTR (Homo sapiens, UniProt P13569, DEL508-508).
T1 construct: expressed in transfected cells; host or cells: CFBE41o- human lung derived epithelial cells (CFBE41o-F508delCFTR-HRP), doxycycline-inducible
Kind of test: Cell Surface Expression-Horse Radish Peroxidase (CSE-HRP) Assay.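 For EC50 (with co-corrector): co-corrector chromenyl benzoic acid corrector at 2 or 3 µM.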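 For Maximum % activity (without co-corrector): % of on-plate positive control chromenyl benzoic acid corrector at 2 or 3 µM.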 Format: cell-based. The following applies: for Maximum % activity (with co-corrector) / Emax: maximum at any tested concentration; for Emax: read-out: Maximum % activity (without co-corrector). The method, boiled down: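 Corrector compounds were given as 8-point 3-fold series from 20 or 30 μM, with or without a 2 μM co-corrector, for 18-24 h at 33 °C. Surface HRP was read by luminol luminescence as % of positive control; variable-Hill-slope sigmoidal fitting gave EC50 from triplicate plates.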

[1] abbreviates: test compound alone, without co-corrector, read-out: EC50 (without co-corrector).
[2] abbreviates: with co-corrector, read-out: EC50 (with co-corrector).

Like-named read-outs stand apart in the source and are kept apart here.

T1 sequence (P13569 with tags, fused parts or gaps DEL508-508): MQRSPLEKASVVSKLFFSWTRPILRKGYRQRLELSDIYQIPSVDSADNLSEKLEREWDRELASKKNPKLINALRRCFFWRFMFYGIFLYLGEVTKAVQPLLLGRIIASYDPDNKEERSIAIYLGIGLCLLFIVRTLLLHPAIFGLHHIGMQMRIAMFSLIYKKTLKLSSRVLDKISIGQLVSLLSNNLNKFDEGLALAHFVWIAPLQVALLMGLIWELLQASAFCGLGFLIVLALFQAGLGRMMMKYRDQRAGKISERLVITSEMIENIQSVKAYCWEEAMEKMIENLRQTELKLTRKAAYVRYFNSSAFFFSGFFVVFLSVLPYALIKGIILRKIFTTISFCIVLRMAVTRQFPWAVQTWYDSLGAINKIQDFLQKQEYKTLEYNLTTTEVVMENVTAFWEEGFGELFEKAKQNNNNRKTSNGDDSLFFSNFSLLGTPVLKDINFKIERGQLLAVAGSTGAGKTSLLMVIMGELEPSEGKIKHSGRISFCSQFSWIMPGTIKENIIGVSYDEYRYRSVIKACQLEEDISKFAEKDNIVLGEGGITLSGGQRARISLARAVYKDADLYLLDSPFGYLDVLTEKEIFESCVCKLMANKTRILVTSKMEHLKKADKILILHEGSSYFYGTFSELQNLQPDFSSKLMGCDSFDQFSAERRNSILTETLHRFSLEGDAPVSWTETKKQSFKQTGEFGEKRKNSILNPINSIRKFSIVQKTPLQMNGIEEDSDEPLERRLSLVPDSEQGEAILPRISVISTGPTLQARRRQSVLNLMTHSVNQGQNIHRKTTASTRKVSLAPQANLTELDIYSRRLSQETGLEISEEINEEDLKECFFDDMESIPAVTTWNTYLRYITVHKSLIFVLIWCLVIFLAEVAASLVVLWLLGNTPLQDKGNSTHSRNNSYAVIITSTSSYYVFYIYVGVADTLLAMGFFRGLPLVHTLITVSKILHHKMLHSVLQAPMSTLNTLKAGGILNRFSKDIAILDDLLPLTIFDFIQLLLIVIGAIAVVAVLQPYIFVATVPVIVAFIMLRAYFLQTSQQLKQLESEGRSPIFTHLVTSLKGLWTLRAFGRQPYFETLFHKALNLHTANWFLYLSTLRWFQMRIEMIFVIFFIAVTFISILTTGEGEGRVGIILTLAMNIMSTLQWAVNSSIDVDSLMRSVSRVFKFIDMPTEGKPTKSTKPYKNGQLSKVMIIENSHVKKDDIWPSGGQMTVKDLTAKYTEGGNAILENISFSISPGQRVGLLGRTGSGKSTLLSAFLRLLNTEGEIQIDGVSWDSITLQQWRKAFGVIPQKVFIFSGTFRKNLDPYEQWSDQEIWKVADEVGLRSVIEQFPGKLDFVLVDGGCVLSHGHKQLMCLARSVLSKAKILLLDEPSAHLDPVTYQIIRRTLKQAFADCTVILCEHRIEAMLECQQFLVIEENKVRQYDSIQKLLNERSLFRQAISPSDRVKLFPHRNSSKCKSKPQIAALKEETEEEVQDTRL

As to `COc1ccc(C2CCC2)cc1C1(C(=O)NS(=O)(=O)c2cccc3c2CCN3C)CC1` [II-40], the EC50 under setting [1] lay in the range of 3 to 10 µM and the EC50 under setting [2] was in the range of 3 to 10 µM. Besides, the “Maximum % activity (with co-corrector)” value (with co-corrector) is “+++ (≥350)”. The Emax (without co-corrector) was more than 150%.

In the case of `COc1ncc(C2CCC2)c(C)c1C1(C(=O)NS(=O)(=O)c2cccc3c2ccn3C)CC1` [II-41], the EC50 reads like this: under setting [1], 3 to 10 µM; under setting [2], less than 3 µM. For the same compound, the “Maximum % activity (with co-corrector)” value (with co-corrector) was “+++ (≥350)”. Further, the Emax (without co-corrector) was in the range of 50 to 150%.

For `COc1ncc(C2CCC2)c(C)c1C1(C(=O)NS(=O)(=O)c2cccc3ccn(C)c23)CC1` [II-42], the EC50 is 3 to 10 µM under setting [1] and less than 3 µM under setting [2]. Further, the “Maximum % activity (with co-corrector)” value (with co-corrector) is on record as “+++ (≥350)”. Further, the Emax (without co-corrector) fell in the range of 50 to 150%.

With `COc1ncc(C2CCC2)c(C)c1C1(C(=O)NS(=O)(=O)c2cccc3cnn(C)c23)CC1` [II-43], the EC50 by setting is: under setting [1], less than 3 µM; under setting [2], less than 3 µM. The “Maximum % activity (with co-corrector)” value (with co-corrector) is given as “+++ (≥350)”. Besides, under “without co-corrector”, the Emax fell in the range of 50 to 150%.

Consider `COc1ncc(C2CCC2)c(C)c1C1(C(=O)NS(=O)(=O)c2cccc3ccc(C)nc23)CC1` [II-44], for which the EC50 runs as follows: under setting [1], less than 3 µM; under setting [2], less than 3 µM. Moreover, the “Maximum % activity (with co-corrector)” value (with co-corrector) is reported as “+++ (≥350)”. The Emax (without co-corrector) was more than 150%.

With `COc1cccc(C)c1C1(C(=O)NS(=O)(=O)c2cccc3ccc(C)nc23)CC1` [II-45], the EC50 is 3 to 10 µM under setting [1] and less than 3 µM under setting [2]. Under “with co-corrector”, the “Maximum % activity (with co-corrector)” value is on record as “+++ (≥350)”. The Emax (without co-corrector) was more than 150%.

Take `COc1ccc(C2CCC2)c(C2(C(=O)NS(=O)(=O)c3cccc4ncccc34)CC2)c1` [II-46]: the 50% effective concentration (EC50) is, setting by setting: under setting [1], less than 3 µM; under setting [2], less than 3 µM. Further, where the note is “with co-corrector”, the “Maximum % activity (with co-corrector)” value is reported as “+++ (≥350)”. In addition, the Emax (without co-corrector) is more than 150%.

In the case of `COc1ccc(C2CCC2)c(C2(C(=O)NS(=O)(=O)c3cccc4nc(C)ccc34)CC2)c1` [II-47], the EC50 by setting is: under setting [1], less than 3 µM; under setting [2], less than 3 µM. Moreover, the “Maximum % activity (with co-corrector)” value (with co-corrector) is on record as “+++ (≥350)”. Besides, the Emax (without co-corrector) is more than 150%.

On to `COc1ccc(CO)cc1C1(C(=O)NS(=O)(=O)c2cccc3ncccc23)CC1` [II-48], for which the EC50 under setting [1] was more than 10 µM and the 50% effective concentration (EC50) under setting [2] is 3 to 10 µM. Also, under “with co-corrector”, the “Maximum % activity (with co-corrector)” value was “++ (≥150 and <350)”. In addition, the Emax (without co-corrector) was less than 50%.

For `COCc1ccc(OC)c(C2(C(=O)NS(=O)(=O)c3cccc4ncccc34)CC2)c1` [II-49], the EC50 under setting [1] was less than 3 µM and the EC50 under setting [2] is less than 3 µM. For the same compound, the “Maximum % activity (with co-corrector)” value (with co-corrector) is “+++ (≥350)”. Besides, the Emax (without co-corrector) was more than 150%.

With `COc1cccc(C)c1C1(C(=O)NS(=O)(=O)c2cccc3nc(C)ccc23)CC1` [II-50], the EC50 is 3 to 10 µM under setting [1] and less than 3 µM under setting [2]. Also, the “Maximum % activity (with co-corrector)” value (with co-corrector) is reported as “+++ (≥350)”. Also, the Emax (without co-corrector) was more than 150%.

Take `COc1ccc(C)c(C)c1C1(C(=O)NS(=O)(=O)c2cccc3nc(C)ccc23)CC1` [II-51]: the EC50 is, setting by setting: under setting [1], less than 3 µM; under setting [2], less than 3 µM. Also, the “Maximum % activity (with co-corrector)” value (with co-corrector) was “+++ (≥350)”. The Emax (without co-corrector) is more than 150%.

For `COc1ccc(C2CC2)c(C)c1C1(C(=O)NS(=O)(=O)c2cccc3nc(C)ccc23)CC1` [II-52], the EC50 is, setting by setting: under setting [1], less than 3 µM; under setting [2], less than 3 µM. Moreover, the “Maximum % activity (with co-corrector)” value (with co-corrector) is “+++ (≥350)”. Further, the Emax (without co-corrector) was more than 150%.

On to `COc1cccc(C)c1C1(C(=O)NS(=O)(=O)c2cccc3c2CCCN3)CC1` [II-53], for which the EC50 is 3 to 10 µM under setting [1] and less than 3 µM under setting [2]. Where the note is “with co-corrector”, the “Maximum % activity (with co-corrector)” value is listed as “+++ (≥350)”. Besides, the Emax (without co-corrector) was more than 150%.

With `COc1ccc(Cl)c(OC)c1C1(C(=O)NS(=O)(=O)c2cccc3ncccc23)CC1` [II-54], the EC50 was less than 3 µM under setting [1] and less than 3 µM under setting [2]. Besides, where the note is “with co-corrector”, the “Maximum % activity (with co-corrector)” value is “+++ (≥350)”. Also, the Emax (without co-corrector) is more than 150%.

Regarding `COc1cccc(C2(C(=O)NS(=O)(=O)c3cccc4ncccc34)CC2)c1` [II-56], the EC50 was in the range of 3 to 10 µM under setting [1] and 3 to 10 µM under setting [2]. Under “with co-corrector”, the “Maximum % activity (with co-corrector)” value is recorded as “+++ (≥350)”. Where the note is “without co-corrector”, the Emax was more than 150%.

For `COc1ccc(C2CC2)cc1C1(C(=O)NS(=O)(=O)c2cccc3ncccc23)CC1` [II-57], where the note is “with co-corrector”, the “Maximum % activity (with co-corrector)” value was “+++ (≥350)”. For the same compound, under “without co-corrector”, the Emax was more than 150%.

As to `COc1ccc(C2CC2)cc1C1(C(=O)NS(=O)(=O)c2cccc3nc(C)ccc23)CC1` [II-60], the “Maximum % activity (with co-corrector)” value (with co-corrector) was “+++ (≥350)”. Where the note is “without co-corrector”, the Emax was more than 150%.

For `Cc1ccc(C)c(C2(C(=O)NS(=O)(=O)c3cccc4ncccc34)CC2)c1` [II-61], the EC50 is less than 3 µM under setting [1] and less than 3 µM under setting [2]. In addition, the “Maximum % activity (with co-corrector)” value (with co-corrector) was “+++ (≥350)”. Further, the Emax (without co-corrector) is more than 150%.

As for `COc1cc(C)ccc1C1(C(=O)NS(=O)(=O)c2cccc3ncccc23)CC1` [II-63], the EC50 was less than 3 µM under setting [1] and less than 3 µM under setting [2]. Further, the “Maximum % activity (with co-corrector)” value (with co-corrector) is reported as “+++ (≥350)”. In addition, the Emax (without co-corrector) was more than 150%.

Turning to `COc1c(C)cccc1C1(C(=O)NS(=O)(=O)c2cccc3ncccc23)CC1` [II-64], the EC50 runs as follows: under setting [1], 3 to 10 µM; under setting [2], less than 3 µM. Further, for the setting “with co-corrector”, the “Maximum % activity (with co-corrector)” value is “+++ (≥350)”. Further, for the setting “without co-corrector”, the Emax was more than 150%.

`COc1cc(C2CCC2)cc(OC)c1C1(C(=O)NS(=O)(=O)c2cccc3c2ccn3C)CC1` [II-65]: the EC50 runs as follows: under setting [1], less than 3 µM; under setting [2], less than 3 µM. Also, the “Maximum % activity (with co-corrector)” value (with co-corrector) is “+++ (≥350)”. Also, where the note is “without co-corrector”, the Emax is more than 150%.

Consider `COc1cc(C2CCC2)cc(OC)c1C1(C(=O)NS(=O)(=O)c2cccc3ccn(C)c23)CC1` [II-66], for which the EC50 is less than 3 µM under setting [1] and less than 3 µM under setting [2]. Moreover, the “Maximum % activity (with co-corrector)” value (with co-corrector) is “+++ (≥350)”. For the same compound, the Emax (without co-corrector) is more than 150%.

For the compound `COc1cc(C2CCC2)cc(OC)c1C1(C(=O)NS(=O)(=O)c2cccc3cnn(C)c23)CC1` [II-67], the EC50 is, setting by setting: under setting [1], less than 3 µM; under setting [2], less than 3 µM. The “Maximum % activity (with co-corrector)” value (with co-corrector) was “+++ (≥350)”. Moreover, the Emax (without co-corrector) is more than 150%.

On to `COc1cc(C2CCC2)cc(OC)c1C1(C(=O)NS(=O)(=O)c2cccn3nccc23)CC1` [II-68], for which the EC50 reads like this: under setting [1], 3 to 10 µM; under setting [2], less than 3 µM. Besides, where the note is “with co-corrector”, the “Maximum % activity (with co-corrector)” value is “+++ (≥350)”. Moreover, the Emax (without co-corrector) was more than 150%.

Take `COc1cc(C2CCC2)cc(OC)c1C1(C(=O)NS(=O)(=O)c2cccc3nc(C)ccc23)CC1` [II-69]: the EC50 was less than 3 µM under setting [1] and less than 3 µM under setting [2]. Besides, the “Maximum % activity (with co-corrector)” value (with co-corrector) is recorded as “+++ (≥350)”. Further, the Emax (without co-corrector) was more than 150%.

As to `COc1cc(C2CCC2)cc(OC)c1C1(C(=O)NS(=O)(=O)c2cccc3nc(N)ccc23)CC1` [II-70], the EC50 was less than 3 µM under setting [1] and less than 3 µM under setting [2]. Besides, the “Maximum % activity (with co-corrector)” value (with co-corrector) was “+++ (≥350)”. Moreover, the Emax (without co-corrector) is more than 150%.

On to `CCc1ccc(OC)c(C2(C(=O)NS(=O)(=O)c3cccc4nc(N)ccc34)CC2)c1` [II-71], for which the EC50 was less than 3 µM under setting [1] and less than 3 µM under setting [2]. For the setting “with co-corrector”, the “Maximum % activity (with co-corrector)” value is “+++ (≥350)”. In addition, the Emax (without co-corrector) is more than 150%.

By EC50 is commonly meant the concentration needed to bring the measured effect to its halfway point.
